# How the values were obtained:
# [1] = reversion of Compound 1 to β-lapachone in dilute or buffered solution (UV-vis, HPLC); format: physicochemical
# Text: Thus, compound 1 also reverts back to β-lapachone under the conditions of high pH or when mixed with plasma. The hydroxy sulfonate of β-lapachone easily reverts back to β-lapachone in dilute solutions of bisulfite and other reagents. […] However, the mass by LC/MS for Compound 1 can be obtained using a short LC method where the acetonitrile/water mobile phase is acidified with 0.1% formic acid. Even under these conditions, two peaks are observed, one peak corresponding to Compound 1, and one to the β-lapachone released from the complex.
# [2] = reversion of Compound 1 to β-lapachone in human plasma (UV-vis); format: in vitro ADME; conditions: diluted human plasma
# Text: Thus, compound 1 also reverts back to β-lapachone under the conditions of high pH or when mixed with plasma.
# [3] = equilibrium solubility of β-lapachone with bisulfites, HPLC; format: physicochemical; conditions: 3-15 mg/mL sodium metabisulfite or sodium bisulfite in water or 2.5-5% HPβCD; shaken 24 hours
# Protocol: Solutions of bisulfites at different concentrations were prepared in water or 2.5% HPβCD and an excess amount of β-lapachone was added to obtain a saturated solution. These solutions were shaken for 24 hours, filtered through a 0.45 μm filter, and analyzed for β-lapachone concentration by HPLC. The equilibrium solubility results, in the presence and absence of HPβCD, are illustrated in FIGS. 1A to 1C. Bisulfite can enhance the equilibrium solubility of β-lapachone depending on the concentration of the bisulfites. […] The solubility of the β-lapachone is directly proportional with the amounts of bisulfites added, until they reach respective saturation concentrations (See FIG. 1C).
# [4] = maximum concentrations of β-lapachone converted to Compound 1 at different pHs; format: physicochemical
# [5] = Text: Methyl beta-cyclodextrin (MeβCD) is a derivative of beta-cyclodextrin with 1-7 methyl substituents on the secondary O-2 positions.
# HPβCD with two different degrees of substitutions, 6.9 and 4.3, were compared in terms of β-lapachone solubility.
# [6] = system: human cancer cell lines; conditions: single agent, typical range, read-out: antineoplastic activity (IC50); cited from earlier work
# [7] = system: normal or proliferating human PBMC; conditions: cited from earlier work
smiles,measurement,setting,value
"CC1(C)CCC2=C(O1)c1ccccc1C(O)(S(=O)(=O)[O-])C2=O.[Na+] (stereo not drawn) [Compound 1, Sodium 6-hydroxy-2,2-dimethyl-5-oxo-3,4,5,6-tetrahydro-2H-benzo(h)chromene-6-sulfonate]",stability: reversion to β-lapachone,"[1]; diluted in phosphate buffered saline at pH 7, UV-vis",UV-vis spectrum become identical to that for a solution of β-lapachone
same,stability: reversion to β-lapachone,"[1]; diluted with mobile phase of acetonitrile and phosphate buffer pH 6.8, HPLC",only the β-lapachone can be detected
same,stability: reversion to β-lapachone,"[1]; dilution to 20-100 μM or less, or pH increased to 6-7 or higher in combination with dilution, UV-vis",converts Compound 1 back to β-lapachone
same,stability in human plasma: reversion to β-lapachone,[2]; pH 7,UV-vis spectrum become identical to that for a solution of β-lapachone
same,stability in human plasma: reversion to β-lapachone,"[2]; pH 7, listed as compound 1",the only species present is β-lapachone
"CC1(C)CCC2=C(O1)c1ccccc1C(=O)C2=O [β-lapachone, 3,4-dihydro-2,2-dimethyl-2H-naphtho[1,2-b]pyran-5,6-dione]",equilibrium solubility in aqueous solution,[3],dramatically improve the solubility
same,Converted β-lapachone Conc.,"[4]; Na2S2O5 5 mg/mL, pH of the formulation 3.01",5.90 mg/mL
same,Converted β-lapachone Conc.,"[4]; Na2S2O5 5 mg/mL, pH of the formulation 4.46",5.76 mg/mL
same,Converted β-lapachone Conc.,"[4]; Na2S2O5 5 mg/mL, pH of the formulation 7.04",1.88 mg/mL
same,Converted β-lapachone Conc.,"[4]; NaHSO3 5 mg/mL, pH of the formulation 3.29",5.76 mg/mL
same,Converted β-lapachone Conc.,"[4]; NaHSO3 5 mg/mL, pH of the formulation 4.52",5.97 mg/mL
same,Converted β-lapachone Conc.,"[4]; NaHSO3 5 mg/mL, pH of the formulation 7.04",2.23 mg/mL
same,higher solubilizing effect of HPβCD of lower degree of substitution on β-lapachone solubility,[5],16-17%
same,IC50,[6],1 to 10 µM
same,cytotoxic effects,[7],No cytotoxic effects were observed

# — patent US7790765B2, “Hydroxy sulfonate of quinone compounds and their uses” (ArQule, Inc., priority 2007, dated 2010)
